Assay results: PMC9374667 (Communications Biology, 2022)
“And” between values parts separate entries of the source, which are not always exact repeats. Equal values may be shown once.

Tests used:
db/db mice [1] = test: Body weight of db/db mice during 35-day treatment; type: in vivo; conditions: db/db mice
Procedure: (§1) The lean wild type control and the db/db control mice were given equal vehicle volume (0.5% CMC-Na solution). All mice were monitored for food intake, body weight, and fasting blood glucose during the 35-day trial. Glucose tolerance test (GTT) and insulin resistance test (ITT) were performed at 4 and 5 weeks of treatment, respectively. Metabolic analysis was performed at 5 weeks of treatment. At the end of the study, blood samples were taken through the retroorbital venous sinus of mice, fat depots (brown fat, inguinal subcutaneous fat, epididymal fat, perirenal fat and mesenteric fat depot) were dissected, weighed, and immediately frozen in liquid nitrogen and stored at −80 °C until required. Weight of fat depots are expressed in percentage (fat depots weight /bodyweight * 100%).

db/db mice [2] = test: Serum ASAT, ALAT, BUN and Cr (toxicity) in db/db mice; type: in vivo; conditions: db/db mice
db/db mice [3] = test: Fat depots weight (BAT, iWAT, eWAT; percentage of body weight); type: in vivo; parameters: key to BAT fat depot weight (Figure 4c): % of body weight (fat depot weight / body weight * 100%); conditions: db/db mice
Procedure: as §1

db/db mice [4] = test: Weekly fasting glucose levels of db/db mice; type: in vivo; conditions: for Weekly fasting glucose levels of db/db mice (Figure 5a): BBR 150mg/kg, individual mice 1-10, in mmol/L
Procedure: as §1

db/db mice [5] = test: Insulin tolerance test (ITT), AUC and initial slope; type: in vivo; parameters: blood glucose AUC: unit not given here; conditions: BBR 150mg/kg; for blood glucose level: in mmol/L (unit assumed)
Procedure: Mice were fasted for 4 h for insulin resistance test and intraperitoneally injected with 1 unit/kg of insulin. Blood glucose levels were measured from the tail vein blood at 0, 15, 30, 45, 60, 90, and 120 min after injection. Plasma insulin levels were measured using an ultrasensitive mouse insulin ELISA kit (Nanjing Jiancheng Bioengineering Institute, Nanjing, China).

TNF-α and IL-6 [6] = test: Serum levels of TNF-α and IL-6 (ELISA); type: in vivo, mice; parameters: TNFα / IL-6: unit not given here
Procedure: (§2) The serum was collected by centrifugation at 3000 × g at 4 °C for 15 min and stored at −80 °C until analysis. TG, TC, LDL-C, HDL-C, and FFA were routinely tested on a Chemray 240 automatic biochemical analyzer (Chemray 240, Shenzhen, China). Serum levels of mouse adiponectin, interleukin6 (IL-6), tumor necrosis factor-α (TNF-α) were measured using commercial enzyme-linked immunosorbent assay (ELISA) kits (Nanjing Jiancheng Bioengineering Institute, Nanjing, China) and according to the manufacturer’s instructions. The levels of IL-6, TNF-α in 3T3-L1 adipocyte culture supernatant were also detected by ELISA.

[7] = system: F4/80-positive macrophages; test: Immunohistochemical staining of eWAT for F4/80; type: in vivo, mice
Procedure: The adipose tissue was fixed overnight in 4% paraformaldehyde, then embedded in paraffin and cut into 5 µm thick slices. Tissue sections were stained with hematoxylin and eosin (H&E). For immunohistochemistry, sections were incubated with primary antibodies against F4/80 (1:100 dilution) diluted in the blocking solution at 4 °C overnight. The tissue sections were then incubated with the horseradish peroxidase (HRP)-conjugated secondary antibody at room temperature for 2 h. Finally, the sections were developed with diaminobenzidine (DAB) and counterstained with hematoxylin. Images were obtained under a microscope. To quantify the F4/80-positive macrophages, two random fields per sample were analyzed by Image J software. The IHC profiler plugin of ImageJ was used to calculate the F4/80 positive area.

TNF-α and IL-6 [8] = test: TNF-α and IL-6 in supernatant of TNF-α induced 3T3-L1 adipocytes (ELISA); type: cell-based, Murine; parameters: levels of TNF-α / levels of IL-6: unit not given here
Procedure: We next examined the role of BJ on TNF-α induced inflammation of differentiated 3T3-L1 adipocytes.
as §2

[9] = BBR 150mg/kg, individual mice 1-10, in %

## COc1ccc2cc3[n+](cc2c1OC)CCc1cc2c(cc1-3)OCO2 [BBR, Berberine chloride dihydrate]
db/db mice [1]; 150 mg/kg gavage once per day, day 1, individual mice, 150 mg/kg
  Body weight: 41 grams and 40 grams and 42 grams and 36 grams and 39 grams and 37 grams
db/db mice [1]; 150 mg/kg gavage once per day, day 4, individual mice, 150 mg/kg
  Body weight: 40 grams and 41 grams and 37 grams and 39 grams
db/db mice [1]; 150 mg/kg gavage once per day, day 7, individual mice, 150 mg/kg
  Body weight: 42 grams and 43 grams and 37 grams and 38 grams and 39 grams and 41 grams
db/db mice [1]; 150 mg/kg gavage once per day, day 10, individual mice, 150 mg/kg
  Body weight: 42 grams and 43 grams and 44 grams and 38 grams and 39 grams and 40 grams
db/db mice [1]; 150 mg/kg gavage once per day, day 13, individual mice, 150 mg/kg
  Body weight: 43 grams and 44 grams and 38 grams and 39 grams and 41 grams
db/db mice [1]; 150 mg/kg gavage once per day, day 16, individual mice, 150 mg/kg
  Body weight: 45 grams and 43 grams and 44 grams and 38 grams and 39 grams and 42 grams and 41 grams
db/db mice [1]; 150 mg/kg gavage once per day, day 19, individual mice, 150 mg/kg
  Body weight: 44 grams and 43 grams and 37 grams and 40 grams and 42 grams
db/db mice [1]; 150 mg/kg gavage once per day, day 22, individual mice, 150 mg/kg
  Body weight: 42 grams and 45 grams and 41 grams and 39 grams and 43 grams and 44 grams
db/db mice [1]; 150 mg/kg gavage once per day, day 25, individual mice, 150 mg/kg
  Body weight: 42 grams and 46 grams and 43 grams and 38 grams and 39 grams and 44 grams and 40 grams and 45 grams
db/db mice [1]; 150 mg/kg gavage once per day, day 28, individual mice, 150 mg/kg
  Body weight: 44 grams and 47 grams and 43 grams and 39 grams and 45 grams and 46 grams
db/db mice [1]; 150 mg/kg gavage once per day, day 31, individual mice, 150 mg/kg
  Body weight: 46 grams and 48 grams and 49 grams and 41 grams and 42 grams and 47 grams and 43 grams and 45 grams
db/db mice [1]; 150 mg/kg gavage once per day, day 34, individual mice, 150 mg/kg
  Body weight: 48 grams and 46 grams and 50 grams and 51 grams and 43 grams and 47 grams and 45 grams
db/db mice [1]; 150 mg/kg gavage once per day, day 35, mean ± SD
  Average body weight gain: 7.6 ± 0.8 g
db/db mice [1]; 150 mg/kg gavage once per day, individual mice, 150 mg/kg
  Body weight gain in 5 weeks: 8 grams and 7 grams and 6 grams and 9 grams
db/db mice [1]; 5 weeks, BJ 75 and 150 mg/kg, BBR 150 mg/kg, Ibu 150 mg/kg
  Body weight compared with vehicle: lower body weight than the db/db mice treated with the vehicle
db/db mice [2]; 150mg/kg, individual animals
  ALT: 86 U/L and 97 U/L and 103 U/L and 92 U/L and 85 U/L
  AST: 125.4 U/L and 140.1 U/L and 155.9 U/L and 114.8 U/L and 154.6 U/L and 172.8 U/L
  BUN: 8.17 mmol/L and 9.82 mmol/L and 8.93 mmol/L and 9.15 mmol/L and 9.31 mmol/L and 8.1 mmol/L
  Cr: 17.7 µmol/L and 16.3 µmol/L and 16.4 µmol/L and 17.9 µmol/L and 17.6 µmol/L
db/db mice [2]; 5 weeks of treatment, vs vehicle control
  Fasting serum ASAT, ALAT, BUN, and Cr levels: reduced fasting serum ASAT, ALAT, BUN, and Cr levels
db/db mice [3]; BBR 150mg/kg, individual mice 1-10
  BAT fat depot weight (Figure 4c): 2.4015 and 0.6109 and 1.4913 and 1.4054 and 1.8804 and 2.4038 and 1.1343 and 1.618 and 1.1772 and 2.0775
db/db mice [3]; [9]
  eWAT fat depot weight (Figure 4c): 2.6561 and 3.1311 and 2.7778 and 2.6199 and 2.8014 and 3.2406 and 2.7924 and 3.779 and 2.6477 and 2.5027
  iWAT fat depot weight (Figure 4c): 3.5734 and 2.9857 and 2.7524 and 3.658 and 3.8567 and 3.8981 and 3.3728 and 3.0795 and 1.8382 and 2.8305
db/db mice [3]; 150 mg/kg for 35 days, individual mice, 150 mg/kg
  Fat depots weight / body weight: 19.7808% and 22.3551% and 14.9978% and 19.6619% and 20.7394% and 16.7296% and 16.0902% and 17.3833% and 23.2726% and 23.7021%
db/db mice [3]; BJ 75 and 150 mg/kg, BBR 150 mg/kg, Ibu 150 mg/kg
  Fat depots weight compared with vehicle: lower fat depots weight than vehicle-treated db/db mice
db/db mice [4]; 1st of 6 weekly columns (time not given)
  Weekly fasting glucose levels of db/db mice (Figure 5a): 17.4 and 11.5 and 21.8 and 12.0 and 11.7 and 15.7 and 14.9 and 17.1
db/db mice [4]; 2nd of 6 weekly columns (time not given)
  Weekly fasting glucose levels of db/db mice (Figure 5a): 26.2 and 16.0 and 21.2 and 18.4 and 15.0 and 21.3 and 21.6 and 19.3 and 16.9
db/db mice [4]; 3rd of 6 weekly columns (time not given)
  Weekly fasting glucose levels of db/db mice (Figure 5a): 23.6 and 18.7 and 19.5 and 20.6 and 21.5 and 23.7 and 13.1 and 20.7 and 20.5
db/db mice [4]; 4th of 6 weekly (time not given)
  Weekly fasting glucose levels of db/db mice (Figure 5a): 19.5 and 14.4 and 15.7 and 19.0 and 17.0 and 19.2 and 9.3 and 10.1 and 18.3 and 13.0
db/db mice [4]; 5th of 6 weekly (time not given)
  Weekly fasting glucose levels of db/db mice (Figure 5a): 18.5 and 10.1 and 10.6 and 12.8 and 13.2 and 9.4 and 10.5 and 8.4 and 10.7 and 13.3
db/db mice [4]; 6th of 6 weekly (time not given)
  Weekly fasting glucose levels of db/db mice (Figure 5a): 15.5 and 9.3 and 11.4 and 15.8 and 10.5 and 10.2 and 10.0 and 9.8 and 13.5
db/db mice [4]; db/db mice, 150 mg/kg, vehicle rose from 14.4 ± 3.4 to 23.9 ± 3.4
  Fasting blood glucose level at the end of the treatment: 11.6 ± 2.4 mmol/L
db/db mice [4]; db/db mice, BJ 75 and 150 mg/kg, BBR 150 mg/kg, Ibu 150 mg/kg
  Blood (serum) glucose levels compared with vehicle: slowed the increase in glucose levels
db/db mice [5]; individual mice, time column 1 of 7 (time not printed)
  blood glucose level: 19.2 and 16.4 and 9.2 and 15.3 and 9.5 and 19.6 and 19.0 and 21.8 and 10.2
db/db mice [5]; individual mice, time column 2 of 7 (time not given)
  blood glucose level: 18.1 and 16.0 and 9.1 and 15.7 and 11.1 and 18.6 and 18.3 and 22.5 and 13.5
db/db mice [5]; individual mice, time column 3 of 7 (time not given)
  blood glucose level: 14.4 and 12.6 and 7.4 and 12.2 and 7.9 and 18.7 and 13.6 and 19.0 and 15.5 and 10.0
db/db mice [5]; individual mice, time column 4 of 7 (time not given)
  blood glucose level: 12.3 and 9.3 and 4.0 and 8.5 and 6.8 and 15.1 and 11.8 and 17.7 and 13.7 and 6.9
db/db mice [5]; individual mice, time column 5 of 7 (time not given)
  blood glucose level: 10.3 and 9.1 and 4.5 and 8.8 and 7.2 and 13.0 and 10.2 and 17.4 and 10.8 and 7.5
db/db mice [5]; individual mice, time column 6 of 7 (time not given)
  blood glucose level: 11.7 and 9.8 and 3.9 and 8.9 and 7.6 and 15.8 and 11.2 and 20.0 and 12.2 and 8.2
db/db mice [5]; individual mice, time column 7 of 7 (time not printed)
  blood glucose level: 11.0 and 10.0 and 4.1 and 9.3 and 6.7 and 17.4 and 10.3 and 19.0 and 11.5 and 7.3
db/db mice [5]; Figure 5f, individual mice
  blood glucose AUC: 948.75 and 1960.5 and 1518 and 2328 and 1638 and 1056.75 and 1563.75 and 1340.25 and 656.25 and 1265.25
db/db mice [5]; db/db mice, individual animals (Figure S10a)
  Initial Slope: -0.0533 mmol/L/min and -0.03 mmol/L/min and -0.18 mmol/L/min and -0.0933 mmol/L/min and -0.1367 mmol/L/min and -0.0067 mmol/L/min and -0.16 mmol/L/min and -0.1267 mmol/L/min and -0.06 mmol/L/min and -0.1033 mmol/L/min
TNF-α and IL-6 [6]; Figure 5i, BBR 150mg/kg, individual values
  IL-6: 24.23 and 30 and 30.18 and 32.12 and 23.56 and 26.45
TNF-α and IL-6 [6]; Figure 5h, BBR 150mg/kg, individual values
  TNFα: 161.97 and 148.57 and 185.98 and 167.03 and 204.23 and 186.47
TNF-α and IL-6 [6]; db/db mice, 5 weeks of treatment
  Serum TNF-α and IL-6 levels: significantly lower than those in the vehicle-treated group
[7]; Figure 5k, BBR 150mg/kg, individual values
  Quantification of immunohistochemical staining: 0.8707 and 0.7836 and 0.9995 and 1.2402 and 1.136 and 0.9532
[7]; db/db mice, epididymal fat pads
  Proportion of F4/80-positive macrophages around adipocytes: lower than that of the vehicle-treated db/db mice
TNF-α and IL-6 [8]; 3T3-L1 adipocytes treated with TNF-α
  Levels of TNF-α and IL-6 in the supernatant: significantly reduced the levels of TNF-α and IL-6
TNF-α and IL-6 [8]; Figure 7e, TNF-α(50ng/ml)+10μM BBR, replicates
  levels of TNF-α: 111.895 and 109.61 and 99.3949 and 99.3623 and 111.275 and 110.361
TNF-α and IL-6 [8]; Figure 7f, TNF-α(50ng/ml)+10μM BBR, replicates
  levels of IL-6: 17.4575 and 16.5244 and 17.8031 and 16.7594 and 17.9828 and 16.9875
